Experiments:
GI S9 stability = format: in vitro ADME; details: human, s9, pH 7.4
Procedure: Example G: GI S9 Stability
Duplicate aliquots of test compound or positive control substrate (GS-7340) were added to S9 stock diluted with 100 mM phosphate buffered saline, pH 7.4, to obtain a protein concentration of 1.0 mg/mL. The S9 metabolic reactions were initiated by the addition of the substrates to the S9 reaction mixture to a final concentration of 2 μM. At 0, 10, 20, 30, 60 and 120 min, […] aliquots of the reaction mixture were transferred to plates containing […] of IS/Q solution. After quenching, the plates were centrifuged at 3000 g for 30 minutes, and 150 μL aliquots of each supernatant were diluted with 150 μL water. Aliquots ([…]) of the diluted supernatant were analyzed on a Thermo Q-Exactive mass spectrometer as described below. GI S9 Stability—No phenylmethylsulfonyl fluoride (PMSF): Similar to the procedure described above, test compounds were incubated at 2 μM with 1 mg/mL PMSF-free Intestinal S9 fractions. Samples are removed at 6 time points over the course of a 120 min experiment and the parent compound disappreance and reference compound A formation is determined by mass spectrometry.
Example K: Liquid Chromatography/Mass Spectroscopy Methods for S9 and Plasma Stability
Quantification of test compounds, Reference Compound A (S9 stability assay nucleoside metabolite), and controls was performed by analyte/internal standard peak area ratio (PAR) values measured on a Thermo Q-Exactive mass spectrometer coupled to a Dionex UltiMate 3000 HPLC with a Leap Technologies HTC PAL autosampler. The column used for analysis of test compounds and Reference Compound A was a Waters Acquity BEH C18 ([…] particle size, 2.1′50 mm). The column used for control (GS-7340) was a Thermo Hypersil GOLD ([…] particle size, 2.1′50 mm). Mobile phase A consisted of 0.1% (v/v) formic acid in water. Mobile phase B consisted of 0.1% (v/v) formic acid in acetonitrile. Elution of analytes was achieved by a series of linear gradients of acetonitrile in water containing 0.1°(v/v) formic acid. The mass spectrometer was calibrated on a weekly basis and mass tolerance of 5 ppm was used.

Plasma stability = format: in vitro ADME; parameters: unit not given here; details: 37° C., 2 μM substrate
How it was run: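 LC-MS (Q-Exactive, 5 ppm tolerance, 0.1% formic acid water/acetonitrile gradient) quantified compound in quenched aliquots. Aliquots were taken at 0.05, 0.5, 1, 2, 3 and 4 hr and quenched with internal-standard solution, and supernatants were diluted with water after centrifugation.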

[1] = tested on: SARS Coronavirus 2 recombinant with NanoLuc (SARS-CoV2-NLuc) in A549-hACE2 cells; assay: organism not typed; format: cell-based; details: 48 h; read-out: SARS-CoV2 EC50
[2] = tested on: Respiratory syncytial virus recombinant with luciferase (RSV-Luc5) in Normal Human Bronchial Epithelial (NHBE) cells; assay: microbe, parasite or virus in culture; format: cell-based; details: 72 h, read-out: RSV NHBE EC50
[3] = tested on: Respiratory syncytial virus recombinant with luciferase (RSV-Luc5) in HEp-2 cells; assay: microbe, parasite or virus in culture; format: cell-based; details: human respiratory syncytial virus, HEp-2, 72 h, read-out: RSV Hep2 EC50
[4] = CC50 MT4 cytotoxicity (Cell-Titer Glo); format: cell-based; details: human
How it was run: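 CC50 values are the concentrations cutting viability by 50%, fitted by non-linear regression against untreated (100%) and 2 μM puromycin (0%) controls. Cell-Titer Glo luminescence measured after 4-5 days at 37° C exposure of uninfected MT-4 and HEp-2 cells to 3-fold dilutions spanning 15 nM to 100,000 nM.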

[5] = tested on: Caco-2 cells (clone C2BBe1); assay: CACO-2 permeability; format: in vitro ADME; parameters: unit not given here; details: for DM Caco2 A to B: apical to basolateral, donor pH 6.5, receiver pH 7.4; for DM Caco2 B to A: basolateral to apical
How it was run: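 A-to-B and B-to-A flux measured by LC-MS/MS from receiver samples taken at 1 and 2 h, with donor sampled at 0 and 2 h and recovery checked. Buffers: pH 6.5 HBSS with 200 μM BNPP on the donor side, pH 7.4 with BSA on the receiver side. Monolayers were 21-day cultures, TEER-verified, in duplicate wells.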

[6] = Thermodynamic solubility in pH7 buffered solution; details: 50 mM phosphate buffer pH7, 150 mM NaCl, ambient temperature, 24 hours
Procedure: Solubility was determined at ambient temperature in a 50 mM phosphate buffered pH7 solution with 150 mM NaCl (to achieve isotonicity). Solids were added to the buffered solution in 1.5-mL Eppendorf tubes, vortexed for 1 minute, then agitated for 24 hours in an Eppendorf ThermoMixer C. […] Supernatants were diluted to a volume of 1 mL with 30:70 v/v acetonitrile:water. All diluted supernatants were analyzed by UPLC using a Waters Acquity UPLC with a PDA UV detector.

[7] = Stability in pH2 buffered solution; format: physicochemical; details: pH2 phosphate buffer, 40° C., 24 h; Table N2
Procedure: (§1) Example N: Stability in p112 and p117 Buffered Solutions
(§2) The aqueous stability of compounds over a time of 24 hours at 40° C. was assessed. Stability was determined in 50 mM phosphate buffered solutions at both pH2 and pH7, with 150 mM NaCl (to achieve isotonicity). 3-5 mg of solid compounds were added to 7 mL scintillation vials. Acetonitrile was added to each vial to produce a 1 mg/mL stock solution. Stock solutions were diluted to 50 μg/mL in either pH2 or pH7 phosphate buffer, to a volume of 1 mL. For each compound and pH condition, 50 μg/mL samples were prepped in duplicate. One sample was placed on the UPLC tray at 40° C. for analysis, and the second sample was placed in a 40° C. oven for storage. Sample preps for each compound were offset by 40 minutes to account for run time on UPLC.
(§3) Concentration timepoints were measured at 0, 3, 6, 9, and 12 hrs. After 24 hrs, samples in the 40° C. oven were removed and analyzed by UPLC.
(§4) In FIG. 2, % AN stands for % area normalized. That is, % AN is the area of the compound peak relative to the sum of areas of all the peaks in the UPLC chromatogram. For example, if there were two peaks, compound peak with an area of 9 and another peak with an area of 1, then the % AN of the compound peak would be 90%.

[8] = GI S9 stability - no PMSF; format: in vitro ADME; details: pH 7.4; human intestinal S9, PMSF-free; read-out: GIS9-HUMAN-NoPMSF T1/2
How it was run: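 Stability was assessed by Q-Exactive LC-MS peak area ratios against internal standard, tracking loss of parent and appearance of nucleoside metabolite Reference Compound A. Incubations used 2 μM compound in 1 mg/mL intestinal S9 without PMSF (PBS, pH 7.4), with six samples taken over 120 min.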

[9] = Stability in pH7 buffered solution; format: physicochemical; details: pH7 phosphate buffer, 40° C., Table N2
Procedure: as §1, §2, §3, §4

Structure (SMILES) | half-life at 2 µM (GI S9 stability) | STA Human Plasma 37 (Plasma stability) | EC50 [1] | EC50 [2] | EC50 [3] | CC50 [4] | DM Caco2 A to B [5] | DM Caco2 B to A [5] | Sol pH 7 [6] | pH 2 Stability 24 h % AN [7] | half-life at 2 µM [8] | pH 7 Stability 24 h % AN [9]
N#C[C@@]1(c2ccc3c(N)ncnn23)O[C@H](COC(=O)OC2CCOC2)[C@@H](O)[C@H]1O (stereo partly drawn) [Compound 11, ((2R,3S,4R,5R)-5-(4-aminopyrrolo[2,1-f][1,2,4]triazin-7-yl)-5-cyano-3,4-dihydroxytetrahydrofuran-2-yl)methyl (tetrahydrofuran-3-yl) carbonate] | ≥ 789 min | 135.19 | 20.6 µM | 2.92 µM | 4.94 µM | > 50 µM |  |  |  |  |  | 
CC(C)COC(=O)OC[C@H]1O[C@@](C#N)(c2ccc3c(N)ncnn23)[C@H](OC(=O)C(C)C)[C@@H]1OC(=O)C(C)C [Compound 16, (2R,3R,4R,5R)-2-(4-aminopyrrolo[2,1-f][1,2,4]triazin-7-yl)-2-cyano-5-(((isobutoxycarbonyl)oxy)methyl)tetrahydrofuran-3,4-diyl bis(2-methylpropanoate)] | 1.01 min | 30.6 | 2.57 µM | 0.981 µM | 1.15 µM | 27.8 µM |  |  |  |  |  | 
COC(=O)[C@H]([C@@H](C)OC(=O)OC[C@H]1O[C@@](C#N)(c2ccc3c(N)ncnn23)[C@H](O)[C@@H]1O)N(C)C [Compound 78, methyl O-((((2R,3S,4R,5R)-5-(4-aminopyrrolo[2,1-f][1,2,4]triazin-7-yl)-5-cyano-3,4-dihydroxytetrahydrofuran-2-yl)methoxy)carbonyl)-N,N-dimethyl-L-threoninate] |  | 336.23 | 3.58 µM | 3.6 µM |  | > 50 µM | 0.2 | 4.2 | 0.89 | 90 % AN | 4320 s | 0 % AN
CC(=O)O[C@H]1[C@@H](OC(C)=O)[C@](C#N)(c2ccc3c(N)ncnn23)O[C@@H]1COC(=O)OC(C)(C)c1ccncc1 [Compound 79, (2R,3R,4R,5R)-2-(4-aminopyrrolo[2,1-f][1,2,4]triazin-7-yl)-2-cyano-5-(((((2-(pyridin-4-yl)propan-2-yl)oxy)carbonyl)oxy)methyl)tetrahydrofuran-3,4-diyl diacetate] |  | 17.837 | > 50 µM | > 50 µM |  | > 50 µM | 0.61 | 9.26 | 0.26 | 88 % AN | 40.9 s | 77 % AN
CC(C)OC(=O)OC[C@H]1O[C@@](C#N)(c2ccc3c(N)ncnn23)[C@H](OC(=O)OC(C)C)[C@@H]1OC(=O)OC(C)C [Compound 81, (2R,3R,4R,5R)-2-(4-aminopyrrolo[2,1-f][1,2,4]triazin-7-yl)-2-cyano-5-(((isopropoxycarbonyl)oxy)methyl)tetrahydrofuran-3,4-diyl diisopropyl bis(carbonate)] |  | 195.87 | 24.4 µM | 0.996 µM |  | 48.3 µM | 7.77 | 14.74 | 0.06 | 100 % AN | 41.3 s | 98 % AN
COC(=O)OC[C@H]1O[C@@](C#N)(c2ccc3c(N)ncnn23)[C@H](OC(=O)OC)[C@@H]1OC(=O)OC [Compound 93, (2R,3R,4R,5R)-2-(4-aminopyrrolo[2,1-f][1,2,4]triazin-7-yl)-2-cyano-5-(((methoxycarbonyl)oxy)methyl)tetrahydrofuran-3,4-diyl dimethyl bis(carbonate)] |  | 28.444 | 10.6 µM | 11.1 µM |  | 31.7 µM | 1.2 | 8.3 | 0.62 | 94 % AN | 61 s | 75 % AN
CCOC(=O)OC[C@H]1O[C@@](C#N)(c2ccc3c(N)ncnn23)[C@H](OC(=O)OCC)[C@@H]1OC(=O)OCC [Compound 106, (2R,3R,4R,5R)-2-(4-aminopyrrolo[2,1-f][1,2,4]triazin-7-yl)-2-cyano-5-(((ethoxycarbonyl)oxy)methyl)tetrahydrofuran-3,4-diyl diethyl bis(carbonate)] |  | 30.917 | 4.56 µM | 1.4 µM |  | > 50 µM | 4.975 | 9.5 | 0.08 | 100 % AN | 39.6 s | 91 % AN
CCC1O[C@H]2[C@@H](O1)[C@](C#N)(c1ccc3c(N)ncnn13)O[C@@H]2COC(=O)OC(C)C (stereo partly drawn) [Compound 133, ((3aR,4R,6R,6aR)-6-(4-aminopyrrolo[2,1-f][1,2,4]triazin-7-yl)-6-cyano-2-ethyltetrahydrofuro[3,4-d][1,3]dioxol-4-yl)methyl isopropyl carbonate] |  | 73.357 | > 50 µM | > 50 µM |  | > 50 µM | 17.25 | 16.82 | 0.24 | 95 % AN | 37.4 s | 98 % AN
